Experimental data published in PMC7883873, “Discovery of New Catalytic Topoisomerase II Inhibitors for Anticancer Therapeutics” (Frontiers in Oncology, 2021).
One block for each molecule: values may come before it.

What was measured:
salmon sperm DNA = assay: Ethidium bromide displacement assay; assay type: binding; conditions: increasing doses; 100 µg/ml DNA, 2 µg/ml ethidium bromide
Description: Ethidium bromide displacement assay was performed as previously described ([49], [50]) using Amsacrine (mAMSA) as a positive control. In a 20 µl reaction, compounds were mixed with 100 µg/ml of salmon sperm DNA and 2 µg/ml of ethidium bromide in a fluorescence buffer containing 10 mM HEPES, pH 7.9, 100 mM KCl, 5 mM MgCl2, 0.1 mM EDTA, pH 8.0. Triplicate reactions were subjected to fluorescence emission of 590 nm and excitation of 535 nm. Signals were detected by using the Multimode Microplate Reader, Infinite® F500.

TOP2A [1] = target: T1, TOP2A (Homo sapiens, UniProt P11388); assay: Relaxation and K-DNA decatenation assays of candidates and T60 derivatives (SAR); assay type: biochemical; design: full-length human TOP2A and TOP2B protein (TopoGEN and Inspiralis respectively); purchased TopoGEN TG1001 (human TOP2 assay kit); conditions: compared with T60
Description: (§1) The human TOP2 assay kit (#TG1001, TopoGEN, Buena Vista, CO) and TOP2B (HTB205, Inspiralis, UK) were used for K-DNA decatenation assays. […] The reaction was incubated at 37C for 2 h after which 4 µl stop solution (5× buffer is 5% Sarkosyl, 0.125% bromophenol blue, 25% glycerol) was added. The reaction was resolved by electrophoresis on a 0.8% agarose gel at 60 V and stained with 0.5 µg/ml ethidium bromide for 15 min. DNA bands were visualized using a gel imager (Gel Doc™ EZ System) and quantified using the Image Studio™ Lite Quantification Software.
(§2) The human TOP2A and TOP2B were used to perform DNA relaxation assays. […] The reaction was incubated at 37C for 2 h and stopped by adding 2 µl of 10% SDS and 1 µl of 250 mM of EDTA, followed by the addition of 50 µg/ml of proteinase K at 45 C for 1 h. The reaction was then resolved by electrophoresis on a 1% agarose gel at 80 V and stained with 0.5 µg/ml ethidium bromide for 15 min. DNA bands were visualized using a gel imager (Gel Doc™ EZ System) and quantified using the Image Studio™ Lite Quantification Software.

TOP2A (431–1193) = target: T2, TOP2A (431–1193) (Homo sapiens, UniProt P11388); assay: Bio-Layer Interferometry (BLI) assay; assay type: binding
T2 construct: was incorporated with TOP2A (431–1193); made in house; host or cells: Escherichia coli BL21 co-expressing biotin ligase
Description: BLI assays were performed as we previously reported ([33]). The direct and reversible interactions between small molecules and TOP2 protein were quantified by BLI using OctetRED (ForteBio, Bohemia, NY). Human TOP2A (431–1,193) was produced in situ with AviTag technology. The AviTag sequence ([…]) followed by a six-residue glycine serine linker (GSGSGS) was incorporated with TOP2A (431–1193). Escherichia coli BL21 containing both biotin ligase and TOP2A (431–1193) vectors were induced with 0.5 mM isopropyl-β-D-thiogalactopyranoside (IPTG) and biotin at 16C overnight. The bacteria were then lysed by sonication, and the resulting lysate was purified by immobilized metal ion affinity chromatography (IMAC) with nickel nitrilotriacetic acid (NiNTA) resin and cation-exchange chromatography (HiTrap SP). Purified TOP2A (431–1193) (50 μg/ml) was bound to the super-streptavidin sensors over 50 min at room temperature. The sensor was kept in an assay buffer [20 mM N-2-hydroxyethylpiperazine-N0 -2-ethanesulfonic acid (HEPES), 150 mM NaCl, 500 μM tris(2-carboxyethyl) phosphine (TCEP), and 1% dimethylsulfoxide (DMSO)], when small molecules were added. After 200 s, a wash buffer was used to flush the sensor plate for 100 s. BLI signal was recorded throughout the 300 s following the manufacture’s instruction from OctetRED (ForteBio, Bohemia, NY).

K562 xenografts = assay: K562 xenografts, intra-tumor polymeric paste; assay type: in vivo, nude mice (Nu/Nu); conditions: single 30 µl paste, 1% T60 or T633, 0.3% etoposide
Description: The polymeric paste was prepared with 50% poly-DL-lactide-coglycolide (PLGA) and 50% PEG 300 (w/w) as we have reported ([57]). […] The density of the paste was determined to be 1.2 g/ml ( ± 3%). One million K562 cells were inoculated subcutaneously in bilateral flanks of nude mice (Nu/Nu). […] Tumor volumes were measured every three days and were calculated by length × width × depth × 0.5236. Mice were euthanized when tumor volumes reached 15% of body weight or weight loss >20% occurred. The remaining mice were euthanized after the control group was euthanized. All animal procedures were under the guidelines of the Canadian Council on Animal Care and were approved by the UBC Animal Care Committee (# A19-0256).

TOP2B = TOP2B (Homo sapiens, UniProt Q02880); assay: DNA cleavage assay; assay type: biochemical; design: full-length human TOP2A and TOP2B protein (TopoGEN and Inspiralis respectively); purchased Inspiralis HTB205; conditions: 200 µM, buffer without ATP
Description: (§3) The reactions were incubated in 37C for 30 min and stopped by adding 2 µl of 10% SDS and 1 µl of 250 mM of EDTA, followed by the addition of 50 µg/ml of proteinase K at 45C for 30 min. The reaction was then resolved by electrophoresis on a 1% agarose gel containing […] ethidium bromide in TAE buffer at 60 V. DNA bands were visualized using a gel imager (Gel Doc™ EZ System) and quantified by using the Image Studio™ Lite Quantification Software.

TOP2A [2] = target: T1, TOP2A; assay: DNA cleavage assay; assay type: biochemical; design: full-length human TOP2A and TOP2B protein (TopoGEN and Inspiralis respectively); purchased TopoGEN TG1001 (human TOP2 assay kit); conditions: 200 µM, buffer without ATP
Description: as §3

TOP2A [3] = target: T1, TOP2A; assay: K-DNA decatenation assay; assay type: biochemical; design: full-length human TOP2A and TOP2B protein (TopoGEN and Inspiralis respectively); purchased TopoGEN TG1001 (human TOP2 assay kit); conditions: Figure 3A
Description: as §1

TOP2A [4] = target: T1, TOP2A; assay: DNA relaxation assay (supercoiled pHOT-1 plasmid); assay type: biochemical; design: full-length human TOP2A and TOP2B protein (TopoGEN and Inspiralis respectively); purchased TopoGEN TG1001 (human TOP2 assay kit); conditions: Figure 3B
Description: as §2

TOP2A full-length = TOP2A full-length (Homo sapiens, UniProt P11388 1-1531); assay: EMSA; 2 uM protein, 300 nM DNA, 3 mM Mg2+, no inhibitor; 20 mM HEPES-NaOH pH 7.4, 2 mM DTT, 3 mM MgCl2, 0.05% NP-40, protease inhibitors, 0.1 ug poly[dI:dC] in 20 ul, 30 min at 37 C; 4% native gel in 0.5x TBE; conditions: protein: commercial; label: IRDye700; blunt; self-complementary strand, 2 copies
TOP2B full-length = TOP2B full-length (Homo sapiens, UniProt Q02880 1-1626); assay: as above; conditions: protein: commercial; label: IRDye700; blunt; self-complementary strand, 2 copies
TOP2A (431-1193) = TOP2A (431-1193) (Homo sapiens, UniProt P11388 431-1193); assay: EMSA; 30 uM protein, 300 nM DNA, 3 mM Mg2+, no inhibitor; 20 mM HEPES-NaOH pH 7.4, 2 mM DTT, 3 mM MgCl2, 0.05% NP-40, protease inhibitors, 0.1 ug poly[dI:dC] in 20 ul, 30 min at 37 C; 4% native gel in 0.5x TBE; conditions: protein: recombinant; (NiNTA purified); label: IRDye700; blunt; self-complementary strand, 2 copies
Sequence of TOP2A (431-1193) (P11388 431-1193): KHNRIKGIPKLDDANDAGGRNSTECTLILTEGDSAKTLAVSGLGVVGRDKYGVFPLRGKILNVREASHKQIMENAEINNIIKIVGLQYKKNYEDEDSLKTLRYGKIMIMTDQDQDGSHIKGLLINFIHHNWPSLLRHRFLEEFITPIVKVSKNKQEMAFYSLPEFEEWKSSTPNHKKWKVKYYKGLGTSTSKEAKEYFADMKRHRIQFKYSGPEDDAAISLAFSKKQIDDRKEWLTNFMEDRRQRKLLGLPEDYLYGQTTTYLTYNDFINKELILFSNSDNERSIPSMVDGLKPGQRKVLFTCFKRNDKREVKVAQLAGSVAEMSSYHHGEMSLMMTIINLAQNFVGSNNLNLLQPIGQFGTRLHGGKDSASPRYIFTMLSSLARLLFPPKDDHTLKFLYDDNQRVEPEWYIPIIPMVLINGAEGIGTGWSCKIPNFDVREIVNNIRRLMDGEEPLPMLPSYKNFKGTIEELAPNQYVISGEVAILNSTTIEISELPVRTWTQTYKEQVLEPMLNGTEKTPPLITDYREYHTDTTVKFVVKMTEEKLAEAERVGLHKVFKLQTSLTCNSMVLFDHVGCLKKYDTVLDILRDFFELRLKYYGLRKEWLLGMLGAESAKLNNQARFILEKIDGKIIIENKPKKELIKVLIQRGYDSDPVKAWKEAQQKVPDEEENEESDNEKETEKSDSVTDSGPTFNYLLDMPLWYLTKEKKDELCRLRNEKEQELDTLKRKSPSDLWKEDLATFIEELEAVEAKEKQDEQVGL

T1 sequence (P11388 whole entry): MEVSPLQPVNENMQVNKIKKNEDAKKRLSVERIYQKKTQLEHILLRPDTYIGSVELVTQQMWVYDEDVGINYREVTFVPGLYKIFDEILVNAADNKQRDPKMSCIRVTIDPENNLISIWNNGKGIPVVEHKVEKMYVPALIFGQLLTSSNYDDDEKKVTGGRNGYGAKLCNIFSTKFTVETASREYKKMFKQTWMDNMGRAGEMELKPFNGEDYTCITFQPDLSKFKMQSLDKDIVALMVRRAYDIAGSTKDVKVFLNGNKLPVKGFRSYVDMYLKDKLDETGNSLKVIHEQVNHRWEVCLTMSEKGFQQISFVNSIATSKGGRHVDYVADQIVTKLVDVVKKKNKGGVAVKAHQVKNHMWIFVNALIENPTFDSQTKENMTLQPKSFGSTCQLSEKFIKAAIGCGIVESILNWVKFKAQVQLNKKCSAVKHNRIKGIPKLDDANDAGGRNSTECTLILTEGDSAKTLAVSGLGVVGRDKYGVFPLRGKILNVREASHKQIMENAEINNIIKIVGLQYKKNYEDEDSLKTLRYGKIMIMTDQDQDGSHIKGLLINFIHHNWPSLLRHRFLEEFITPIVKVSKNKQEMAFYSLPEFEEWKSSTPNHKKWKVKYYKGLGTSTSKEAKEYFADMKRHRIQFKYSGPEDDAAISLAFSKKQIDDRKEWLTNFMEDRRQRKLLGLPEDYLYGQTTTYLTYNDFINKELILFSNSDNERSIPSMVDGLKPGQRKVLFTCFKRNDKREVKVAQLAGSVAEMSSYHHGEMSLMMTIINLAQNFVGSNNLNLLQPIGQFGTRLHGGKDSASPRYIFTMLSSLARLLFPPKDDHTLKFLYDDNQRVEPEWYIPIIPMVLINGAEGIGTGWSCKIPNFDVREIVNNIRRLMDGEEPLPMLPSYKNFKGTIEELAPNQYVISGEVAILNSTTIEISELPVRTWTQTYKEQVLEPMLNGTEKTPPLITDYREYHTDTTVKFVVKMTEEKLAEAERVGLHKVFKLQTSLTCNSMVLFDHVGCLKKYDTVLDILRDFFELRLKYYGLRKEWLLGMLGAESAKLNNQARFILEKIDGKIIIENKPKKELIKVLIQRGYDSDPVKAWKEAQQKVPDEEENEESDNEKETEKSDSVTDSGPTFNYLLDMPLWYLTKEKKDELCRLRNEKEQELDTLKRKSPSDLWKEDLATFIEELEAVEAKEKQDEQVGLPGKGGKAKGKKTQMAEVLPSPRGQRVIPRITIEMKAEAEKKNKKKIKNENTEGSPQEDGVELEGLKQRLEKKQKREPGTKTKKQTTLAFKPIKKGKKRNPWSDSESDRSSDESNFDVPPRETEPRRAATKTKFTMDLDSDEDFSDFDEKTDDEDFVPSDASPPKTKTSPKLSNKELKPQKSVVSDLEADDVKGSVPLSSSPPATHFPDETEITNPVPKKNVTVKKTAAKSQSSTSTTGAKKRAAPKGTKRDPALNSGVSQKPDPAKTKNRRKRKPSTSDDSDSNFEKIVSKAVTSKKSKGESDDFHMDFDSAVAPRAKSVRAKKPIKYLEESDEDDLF
T2 sequence (P11388 431-1193): as the sequence (P11388 431-1193) above
Sequence of TOP2B full-length (Q02880 whole entry): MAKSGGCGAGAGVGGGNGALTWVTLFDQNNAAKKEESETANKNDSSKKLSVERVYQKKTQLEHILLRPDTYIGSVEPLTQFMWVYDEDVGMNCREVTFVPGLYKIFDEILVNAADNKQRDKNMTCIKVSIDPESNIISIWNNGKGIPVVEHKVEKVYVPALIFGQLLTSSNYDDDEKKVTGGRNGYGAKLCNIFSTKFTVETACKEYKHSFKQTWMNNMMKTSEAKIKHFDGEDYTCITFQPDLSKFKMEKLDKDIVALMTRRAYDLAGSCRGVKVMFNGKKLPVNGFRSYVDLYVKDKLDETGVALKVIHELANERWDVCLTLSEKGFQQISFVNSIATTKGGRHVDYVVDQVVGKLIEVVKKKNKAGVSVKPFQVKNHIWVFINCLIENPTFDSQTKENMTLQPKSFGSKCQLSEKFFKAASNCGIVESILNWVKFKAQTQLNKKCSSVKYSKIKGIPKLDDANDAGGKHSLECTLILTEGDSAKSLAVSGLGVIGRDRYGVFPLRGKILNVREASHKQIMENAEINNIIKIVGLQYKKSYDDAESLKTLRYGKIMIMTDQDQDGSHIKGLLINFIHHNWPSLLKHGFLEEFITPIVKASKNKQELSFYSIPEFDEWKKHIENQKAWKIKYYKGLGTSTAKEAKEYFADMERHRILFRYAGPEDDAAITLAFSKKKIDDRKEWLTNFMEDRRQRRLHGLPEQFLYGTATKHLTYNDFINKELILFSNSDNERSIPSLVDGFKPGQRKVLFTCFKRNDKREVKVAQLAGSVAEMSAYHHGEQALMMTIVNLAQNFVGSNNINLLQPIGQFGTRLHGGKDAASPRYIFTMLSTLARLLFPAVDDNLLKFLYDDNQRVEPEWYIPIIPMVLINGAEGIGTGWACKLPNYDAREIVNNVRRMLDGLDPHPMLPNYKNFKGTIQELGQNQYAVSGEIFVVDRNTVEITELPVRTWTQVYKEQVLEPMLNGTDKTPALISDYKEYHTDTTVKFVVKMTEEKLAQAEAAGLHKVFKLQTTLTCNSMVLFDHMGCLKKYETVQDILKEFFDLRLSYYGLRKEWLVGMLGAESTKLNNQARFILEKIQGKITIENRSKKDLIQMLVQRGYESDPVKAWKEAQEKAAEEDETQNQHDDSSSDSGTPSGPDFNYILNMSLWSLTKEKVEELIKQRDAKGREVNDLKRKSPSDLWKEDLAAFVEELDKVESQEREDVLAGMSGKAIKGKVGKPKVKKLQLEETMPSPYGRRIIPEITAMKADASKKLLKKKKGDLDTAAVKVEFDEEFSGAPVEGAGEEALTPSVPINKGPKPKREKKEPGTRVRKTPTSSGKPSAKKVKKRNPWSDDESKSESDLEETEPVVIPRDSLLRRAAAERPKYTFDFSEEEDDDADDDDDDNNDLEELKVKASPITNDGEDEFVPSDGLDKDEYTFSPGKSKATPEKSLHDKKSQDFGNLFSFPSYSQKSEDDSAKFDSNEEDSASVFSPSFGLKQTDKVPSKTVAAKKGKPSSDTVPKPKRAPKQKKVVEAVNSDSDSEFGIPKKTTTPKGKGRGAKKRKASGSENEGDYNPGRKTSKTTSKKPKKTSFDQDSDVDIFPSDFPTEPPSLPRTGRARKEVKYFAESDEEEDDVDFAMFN
Sequence of TOP2B (Q02880 whole entry): as above
Sequence of TOP2A full-length (P11388 whole entry): as the sequence (P11388 whole entry) above

Fluorescence of ethidium bromide/DNA complex (DNA intercalation) (salmon sperm DNA): reduced
Molecule: COc1cc(NS(C)(=O)=O)ccc1Nc1c2ccccc2nc2ccccc12 [m-AMSA, Amsacrine, reference compound]

Activity on TOP2 (TOP2A [1]): stronger activities than T60
Molecule: O=C(Nc1ccc(Nc2ccccc2)cc1O)c1ccc[nH]c1=S [T634]

Activity on TOP2 (TOP2A [1]): nearly inactive
Molecule: O=C(Nc1ccc(Nc2ccccc2)cc1)c1c[nH]cnc1=S [T636]

Activity on TOP2 (TOP2A [1]): increased activity
Molecule: O=C(Nc1ccc(Nc2ccccc2O)cc1)c1ccc[nH]c1=S [T620]

Molecule: Cc1cc(Nc2ccccc2)ccc1NC(=O)c1ccc[nH]c1=S [T633]
Hill slope, BLI (TOP2A (431–1193); dose-response 0-50 μM): 5±1.5
Kd (TOP2A (431–1193); dose-response 0-50 μM, estimated): 35 ± 3 µM
Binding to TOP2A (431–1193), BLI curves (TOP2A (431–1193); increasing concentrations): reversible and dose-response binding
Tumor growth at the end of two weeks (K562 xenografts): strongly inhibit tumor growth comparable to etoposide
Activity on TOP2 (TOP2A [1]): stronger activities than T60

Activity on TOP2 (TOP2A [1]): nearly inactive
Molecule: O=C(Nc1ccc(Nc2ccccc2)cc1)c1ccnnc1S [T635]

Induction of linear plasmid (DNA cleavage) with TOP2B (TOP2B): induced detectable linear plasmid
Induction of linear plasmid (DNA cleavage) with TOP2A (TOP2A [2]): induced detectable linear plasmid
Molecule: COc1cc([C@@H]2c3cc4c(cc3[C@@H](O[C@@H]3O[C@@H]5CO[C@@H](C)O[C@H]5[C@H](O)[C@H]3O)[C@H]3COC(=O)[C@H]23)OCO4)cc(OC)c1O [etoposide]
Tumor volumes versus vehicle group at the end of four weeks (K562 xenografts): statistically lower than the vehicle group

Molecule: ICRF193 [reference compound]
Inhibition of TOP2A mediated K-DNA decatenation (TOP2A [3]): inhibited
Inhibition of TOP2A activity changing supercoiled into relaxed plasmid DNA (TOP2A [4]): inhibited

Activity on TOP2 (TOP2A [1]): increased activity
Molecule: O=C(Nc1ccc(Nc2ccc(O)cc2)cc1)c1ccc[nH]c1=S [T625]

Activity on TOP2 (TOP2A [1]): most active compound
Molecule: O=C(Nc1ccc(Nc2ccccc2)cc1)c1ccccc1S [T609]

Activity on TOP2 (TOP2A [1]): complete abolishment of T60 activity
Molecule: CN(C(=O)c1ccc[nH]c1=S)c1ccc(Nc2ccccc2)cc1 [T627]

Activity on TOP2 (TOP2A [1]): stronger activities than T60
Molecule: Cc1cc(NC(=O)c2ccc[nH]c2=S)ccc1Nc1ccccc1 [T630]

B1: 5ZRF (dsDNA)
DNA 1: AGCCGAGCTGCAGCTCGGCT
DNA 2: AGCCGAGCTGCAGCTCGGCT
binding result (TOP2A full-length): binds
binding result (TOP2B full-length): binds
binding result (TOP2A (431-1193)): binds
